US20250270203A1, “NICOTINIC ACETYLCHOLINE RECEPTOR LIGANDS” (Philip Morris Products S.A., priority 2022, published 2025)
Read-outs that look alike come from different tables or passages of the source.

Experiments:
human α7 nAChR = human α7 nAChR (Homo sapiens (Human), UniProt P36544); assay: biochemical; type: binding; details: for nAChR subtype preference / selectivity: in words, from Ki at α7, α4β2, α3β4
α3β4 nAChR = α3β4 nAChR (Homo sapiens (Human), UniProt P30926+P32297); assay: nAChR binding affinity, α3β4 subtype; details: Table 2
α4β2 nAChR = α4β2 nAChR (Homo sapiens (Human), UniProt P17787+P43681); assay: nAChR binding affinity, α4β2 subtype
[1] = tested on: citric acid-induced cough in guinea pigs; assay: Citric acid-induced cough in guinea pigs, dry powder insufflation, nebulisation, oral and intraperitoneal administration (Example 28); type: in vivo, guinea pig
Procedure: The mean concentration of citric acid was 1156.0±111.8 μg/L for both routes.
Regarding oral administration, the duration between compound administration and start of citric acid challenge was 30 minutes. The data was compared to atmospheric air (control).
Regarding intraperitoneal administration, compounds were administered approximately 10-15 mins before the cough challenge (citric acid inhalation challenge). Test compounds were dosed at between 1-30 mg/kg (as described herein for each experiment) while the positive control (codeine) was dosed at 30 mg/kg, in each case using a dosing volume of 10 ml/kg, by a single intraperitoneal injection.

[2] = tested on: citric acid-induced cough in guinea pigs; assay: Citric acid-induced cough in guinea pigs, intraperitoneal injection (Example 27)
Procedure: As depicted in FIG. 1B and FIG. 1C, cough induction is conducted by placing guinea pigs into a whole body plethysmograph (WBP) equipped with a Aeroneb™ vibrating mesh nebulizer, and including pressure transducers and detection equipment (EMKA technologies). A primary microphone is supplied (EMKA Technologies) for acoustic confirmation of cough frequency in the form of a digital trace using the EMKA software.
A secondary microphone (T1 True Wireless Earphone, QCY®) also is placed in the chamber and connected to a smartphone via Bluetooth to enable the observers to hear the audible sounds during the test. A bias flow rate of 2 L/min is used to continuously draw either atmospheric air (during the fresh air period) or aerosolized citric acid from the nebulizer into the WBP and expel it out through an exhaust pipe. Chamber pressure in the WBP is set to be between −10 to −30 Pa relative to ambient pressure.
Prior to the citric acid challenge, the guinea pigs are administered (intraperitoneal injection) with vehicle control, positive control or test compound (where applicable) with different dosage (Table 3) and placed individually into the WBP for at least 5 minutes in order to habituate.
The procedure was as follows: Injection→guinea pig in box having citric acid for 10 mins (counting the cough)→box then fill with air for 5 mins (counting the cough)→guinea pig moved to recovery cage.
Appropriate concentration of citric acid is used to generate aerosol and deliver to WBP for 10 minutes with constant recording of pressure measurements. The mean concentration of citric acid was 1283.1±137.2 μg/L. Upon completion of citric acid challenge, the guinea pig is allowed to recover and continue recording of cough counts for another 5 minutes. Subsequently, the guinea pigs are closely monitored in recovery cage for full recovery from the challenge and that no adverse events were present before returning the animals to its home cage. Cough counts (CCnt) are recorded over a period of at least 10 mins, starting from citric acid stimulation and cough incubation period (CIP) are defined as the time it takes to cough for the first time after citric acid stimulation.
The data were analysed using Oneway ANOVA (* p<0.05, ** p<0.01, *** p<0.001, **** p<0.0001) when compared to saline control, and each column represents Mean±SEM.

[3] = Table 1, [125I] α-Bungarotoxin, Cheng-Prusoff, read-out: α7 Ki

Sequence of α4β2 nAChR (P43681 29-627): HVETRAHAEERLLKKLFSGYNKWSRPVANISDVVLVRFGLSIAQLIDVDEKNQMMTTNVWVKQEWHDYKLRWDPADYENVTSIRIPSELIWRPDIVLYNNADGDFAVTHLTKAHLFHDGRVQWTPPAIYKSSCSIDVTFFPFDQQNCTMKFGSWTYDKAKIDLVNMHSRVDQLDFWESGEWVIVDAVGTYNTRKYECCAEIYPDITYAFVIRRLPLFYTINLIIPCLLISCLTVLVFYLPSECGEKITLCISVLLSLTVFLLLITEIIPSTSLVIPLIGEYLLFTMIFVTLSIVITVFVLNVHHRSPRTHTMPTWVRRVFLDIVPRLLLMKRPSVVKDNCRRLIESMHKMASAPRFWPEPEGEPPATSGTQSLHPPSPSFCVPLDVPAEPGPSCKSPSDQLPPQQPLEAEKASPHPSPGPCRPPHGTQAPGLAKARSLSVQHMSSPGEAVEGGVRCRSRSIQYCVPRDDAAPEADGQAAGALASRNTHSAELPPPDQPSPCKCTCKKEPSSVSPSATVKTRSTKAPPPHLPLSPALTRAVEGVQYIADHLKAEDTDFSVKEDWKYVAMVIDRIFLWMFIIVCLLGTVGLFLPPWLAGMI
Sequence of α4β2 nAChR (P17787 26-502): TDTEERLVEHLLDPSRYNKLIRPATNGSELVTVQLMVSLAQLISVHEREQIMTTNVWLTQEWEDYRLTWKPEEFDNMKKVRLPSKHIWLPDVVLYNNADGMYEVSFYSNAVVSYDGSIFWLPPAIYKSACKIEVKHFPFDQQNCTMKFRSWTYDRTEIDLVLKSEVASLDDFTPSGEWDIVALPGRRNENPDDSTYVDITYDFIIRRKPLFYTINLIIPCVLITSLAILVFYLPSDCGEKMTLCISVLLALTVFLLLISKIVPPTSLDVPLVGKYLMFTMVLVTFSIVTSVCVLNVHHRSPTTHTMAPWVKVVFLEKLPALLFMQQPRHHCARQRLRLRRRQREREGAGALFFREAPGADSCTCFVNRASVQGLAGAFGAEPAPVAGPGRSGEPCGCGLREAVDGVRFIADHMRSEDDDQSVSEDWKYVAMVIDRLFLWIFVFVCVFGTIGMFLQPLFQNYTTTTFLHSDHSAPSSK
Sequence of human α7 nAChR (P36544 23-502 limits assumed): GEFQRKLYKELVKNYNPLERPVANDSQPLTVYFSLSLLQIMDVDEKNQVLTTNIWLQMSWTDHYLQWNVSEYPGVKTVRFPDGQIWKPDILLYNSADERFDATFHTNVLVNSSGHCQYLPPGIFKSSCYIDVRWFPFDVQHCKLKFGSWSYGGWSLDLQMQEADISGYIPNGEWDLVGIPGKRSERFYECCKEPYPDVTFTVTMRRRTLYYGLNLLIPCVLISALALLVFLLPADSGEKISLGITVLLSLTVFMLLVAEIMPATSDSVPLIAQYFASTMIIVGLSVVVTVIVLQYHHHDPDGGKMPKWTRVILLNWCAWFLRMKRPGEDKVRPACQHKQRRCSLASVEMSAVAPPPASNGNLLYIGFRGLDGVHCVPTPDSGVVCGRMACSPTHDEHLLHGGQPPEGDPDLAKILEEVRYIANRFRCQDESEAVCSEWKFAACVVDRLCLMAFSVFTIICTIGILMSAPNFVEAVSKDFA
Sequence of α3β4 nAChR (P32297 32-505): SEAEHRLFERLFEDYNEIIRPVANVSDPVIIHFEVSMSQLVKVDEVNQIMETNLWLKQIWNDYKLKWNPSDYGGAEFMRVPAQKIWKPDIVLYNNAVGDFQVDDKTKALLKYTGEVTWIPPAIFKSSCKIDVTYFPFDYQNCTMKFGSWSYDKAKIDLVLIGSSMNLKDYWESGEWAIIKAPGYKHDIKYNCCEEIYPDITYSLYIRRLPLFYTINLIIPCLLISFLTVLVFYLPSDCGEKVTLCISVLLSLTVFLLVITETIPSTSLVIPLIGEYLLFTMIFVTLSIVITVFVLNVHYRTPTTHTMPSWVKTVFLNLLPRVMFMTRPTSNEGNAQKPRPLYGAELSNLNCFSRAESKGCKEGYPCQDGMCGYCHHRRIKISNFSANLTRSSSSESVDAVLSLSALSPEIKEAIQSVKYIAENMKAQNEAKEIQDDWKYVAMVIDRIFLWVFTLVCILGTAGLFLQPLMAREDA
Sequence of α3β4 nAChR (P30926 22-498): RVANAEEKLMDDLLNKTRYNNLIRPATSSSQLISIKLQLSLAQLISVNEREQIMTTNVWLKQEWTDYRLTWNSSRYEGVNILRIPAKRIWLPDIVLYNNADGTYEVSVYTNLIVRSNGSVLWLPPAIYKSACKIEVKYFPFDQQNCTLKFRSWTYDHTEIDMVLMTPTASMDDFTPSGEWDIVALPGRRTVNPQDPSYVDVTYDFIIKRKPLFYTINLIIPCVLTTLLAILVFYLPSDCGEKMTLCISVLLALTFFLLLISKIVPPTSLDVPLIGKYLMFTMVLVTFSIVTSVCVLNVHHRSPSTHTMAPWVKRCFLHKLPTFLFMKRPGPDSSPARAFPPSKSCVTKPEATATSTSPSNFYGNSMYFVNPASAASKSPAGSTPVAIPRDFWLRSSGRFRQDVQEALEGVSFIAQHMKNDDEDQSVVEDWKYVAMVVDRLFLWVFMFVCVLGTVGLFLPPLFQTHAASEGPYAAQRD

SMILES	Ki (human α7 nAChR)	Ki (α3β4 nAChR)	Ki (α4β2 nAChR; Table 2, read-out: Ki α4β2)	further results
c1cncc(C[C@@H]2[C@H](Oc3ccc(-c4ccc5[nH]ccc5c4)nn3)C3CCN2CC3)c1 (relative stereo) [Compound 7, cis-5-[6-[2-(3-Pyridylmethyl)quinuclidin-3-yl]oxypyridazin-3-yl]-1H-indole]	59 nM	200 nM		nAChR subtype preference / selectivity (human α7 nAChR): preferably binds to the α4β2 nAChR
c1ccc(-c2nnc(O[C@H]3C4CCN(CC4)[C@@H]3Cc3cccnc3)s2)cc1 (relative stereo) [Compound 20, trans-2-Phenyl-5-[2-(3-pyridylmethyl)quinuclidin-3-yl]oxy-1,3,4-thiadiazole]	320 nM			
c1cncc(C[C@H]2[C@H](Oc3ccc(-c4ccc5[nH]ccc5c4)nn3)C3CCN2CC3)c1 [2S,3R-11, (2S,3R)-5-[6-[2-(3-Pyridylmethyl)quinuclidin-3-yl]oxypyridazin-3-yl]-1H-indole]		780 nM	77 nM	Ki (human α7 nAChR; Table 2, read-out: Ki α7): 1 nM; nAChR subtype preference / selectivity (human α7 nAChR): optimal and selective interaction with α7 nAChR
c1ccc(-c2ccc(O[C@H]3C4CCN(CC4)[C@@H]3Cc3cccnc3)nn2)cc1 (relative stereo) [Compound 19, trans-3-(6-Phenylpyridazin-3-yl)oxy-2-(3-pyridylmethyl) quinuclidine]	100 nM			
c1cncc(C[C@@H]2[C@@H](Oc3cnc(-c4ccc5[nH]ccc5c4)cn3)C3CCN2CC3)c1 (racemic) [Compound 9, trans-5-[5-[2-(3-Pyridylmethyl)quinuclidin-3-yl]oxypyrazin-2-yl]-1H-indole]	240 nM			
c1cncc(C[C@@H]2[C@@H](Oc3ccc(-c4ccc5[nH]ccc5c4)nn3)C3CCN2CC3)c1 [2R,3S-11, (2R,3S)-5-[6-[2-(3-Pyridylmethyl)quinuclidin-3-yl]oxypyridazin-3-yl]-1H-indole]		1210 nM	730 nM	Ki (human α7 nAChR; Table 2, read-out: Ki α7): 34 nM
c1cncc(C[C@@H]2[C@@H](Oc3ccc(-c4ccc5[nH]ccc5c4)nn3)C3CCN2CC3)c1 [Compound 11, trans-5-[6-[2-(3-Pyridylmethyl)quinuclidin-3-yl]oxypyridazin-3-yl]-1H-indole]	1 nM			
c1cncc(C[C@@H]2[C@@H](Oc3nnc(-c4ccc5[nH]ccc5c4)s3)C3CCN2CC3)c1 (racemic) [Compound 16, trans-2-(1H-Indol-5-yl)-5-[2-(3-pyridylmethyl)quinuclidin-3-yl]oxy-1,3,4-thiadiazole]		440 nM	220 nM	
c1cncc(C[C@@H]2[C@@H](Oc3nnc(-c4ccc5[nH]ccc5c4)s3)C3CCN2CC3)c1 [Compound 16, trans-2-(1H-Indol-5-yl)-5-[2-(3-pyridylmethyl)quinuclidin-3-yl]oxy-1,3,4-thiadiazole]				Ki (human α7 nAChR; [3]): 11 nM; citric acid-induced cough counts compared with air control ([1]; dry powder insufflated, 1 mg/kg, p=0.0004): significantly reduced; citric acid-induced cough counts compared with air control ([1]; dry powder insufflated, 2 mg/kg, p=0.0042): significantly reduced; citric acid-induced cough counts compared with air control ([1]; nebulised, 0.4 mg/kg, 58 min exposure, p=0.0023): significantly reduced; citric acid-induced cough counts compared with air control ([1]; orally administered, 9.5 mg/kg, p<0.05): significantly reduced; cough frequency compared to negative control (saline) ([1]; prophylactic intraperitoneal treatment at 1, 3 and 9.5 mg/kg, FIG. 8): suppression of cough frequency; number of coughs (citric acid-induced cough counts) ([2]; i.p. 1 mg/kg, p<0.0001 vs saline control (17 coughs)): 5; cough incubation period ([2]; i.p. 1 mg/kg, p<0.001 vs saline control (206 sec)): 548 s; number of coughs (citric acid-induced cough counts) ([2]; i.p. 3 mg/kg, p<0.001 vs saline control (17 coughs)): 5; cough incubation period ([2]; i.p. 3 mg/kg, p<0.01 vs saline control (206 sec)): 455 s; number of coughs (citric acid-induced cough counts) ([2]; i.p. 9.5 mg/kg, p<0.01 vs saline control (17 coughs)): 7; cough incubation period ([2]; i.p. 9.5 mg/kg, p<0.05 vs saline control (206 sec)): 489 s
c1cncc(C[C@@H]2[C@@H](Oc3ccc4ccccc4n3)C3CCN2CC3)c1 (relative stereo) [Compound 18, trans-2-[2-(3-Pyridylmethyl)quinuclidin-3-yl]oxyquinoline]	2920 nM			
c1cncc(C[C@@H]2[C@@H](Oc3ccc(-c4ccc5[nH]ccc5c4)cn3)C3CCN2CC3)c1 [Compound 5, trans-5-[6-[2-(3-Pyridylmethyl)quinuclidin-3-yl]oxy-3-pyridyl]-1H-indole]	58 nM			
c1ccc(-c2nnc(O[C@H]3C4CCN(CC4)[C@@H]3Cc3cccnc3)s2)cc1 (racemic) [Compound 20, trans-2-Phenyl-5-[2-(3-pyridylmethyl)quinuclidin-3-yl]oxy-1,3,4-thiadiazole]	320 nM			
Nc1nc2ccc(-c3ccc(OC4C5CCN(CC5)C4Cc4cccnc4)nn3)cc2s1 (stereo not drawn) [Compound 12, trans-6-[6-[2-(3-Pyridylmethyl)quinuclidin-3-yl]oxypyridazin-3-yl]-1,3-benzothiazol-2-amine]		1080 nM	50 nM	Ki (human α7 nAChR; [3]): 19 nM; Ki (human α7 nAChR; Table 2, read-out: Ki α7): 18.8 nM
c1cncc(C[C@@H]2[C@@H](Oc3cnc(-c4ccc5[nH]ccc5c4)cn3)C3CCN2CC3)c1 (relative stereo) [Compound 9, trans-5-[5-[2-(3-Pyridylmethyl)quinuclidin-3-yl]oxypyrazin-2-yl]-1H-indole]		400 nM	230 nM	
c1cncc(C[C@@H]2[C@@H](Oc3ccc(-c4ccc5[nH]ccc5c4)nn3)C3CCN2CC3)c1 (racemic) [Compound 11, trans-5-[6-[2-(3-Pyridylmethyl)quinuclidin-3-yl]oxypyridazin-3-yl]-1H-indole]	1.4 nM			Ki (α4β2 nAChR): 73 nM
